Starred links: 1 amine or outer side, 2 acyl side, 3 side chain; linkers in the order of their positions; H or OH if unused. Residues, ends and D or L forms follow the SMILES beside them. *: point of attachment. pNA = O=[N+]([O-])c1ccc(N*)cc1; Suc = O=C(CCC(=O)[*:2])[*:1]
Legend:
Human neutrophils [1] = assay: Hydrolysis of the substrate by human neutrophils; assay type: cell-based; conditions: substrate 0.4 mM, pH 7.5; neutrophils from a healthy donor, 5×10^5 cells/ml
Procedure: (§1) Neutral endopeptidase and neutral proteinase activities were assayed by the two-stage assay using the synthetic substrate Suc-Ala-Ala-Leu-NH-Np supplemented with Streptomyces griseus aminopeptidase, usually 6-7 μg/ml. Assays were performed in 0.1M NaCl-0.05M Tris.HCl, pH 7.5 at 25° C., unless otherwise stated, with or without 0.01M CaCl2. Assay volume was 1 ml or 2.5 ml when using a Varian Techtron spectrophotometer or 0.2 ml at 23° C. when performed with microplates (Munc Immuno Plate II F) using a Kinetic Microplate Reader (Molecular Devices Corp.). Activity was measured by following the increase in absorbance at 405 nm, due to the release of 4-nitroaniline, E405 =10,600M^-1 cm^-1 [14 ]. Molar concentration of thermolysin was estimated using A280 1% =17.65 [15] and molecular mass of 34,600 Da; molar concentration of bovine kidney neutral endopeptidase by protein determination and molecular mass of 90 kDa, deduced from SDS PAGE. Both endopeptidase 24.11 from bovine kidney and thermolysin cleave the Ala-Leu bond of the compound at a very fast rate (Table 3). The Leu residue of the substrate interacts with the major hydrophobic specificity sites of the enzymes (S'1), whereas the two Ala residues interact with additional subsites (S1, S2), thereby contributing to catalysis and/or binding. Even the 4-nitroaniline leaving group probably interacts with the enzyme at subsite S'2. […]

Human neutrophils [2] = assay: Two-stage assay on intact cells: inhibition by phosphoramidon; assay type: cell-based
Procedure: as §1, with “3).” for “3). The Leu residue of the substrate interacts with the major hydrophobic specificity sites of the enzymes (S'1), whereas the two Ala residues interact with additional subsites (S1, S2), thereby contributing to catalysis and/or binding. Even the 4-nitroaniline leaving group probably interacts with the enzyme at subsite S'2.”
(§2) Inhibition was measured at pH 7.5, 25° C., in the presence of 10 mM CaCl2 except for the neutrophils that were assayed at 37° C. and in the absence of added Ca^2+. […]

B. cereus culture = target: T1, B. cereus culture (Bacillus cereus, UniProt P05806); assay: Two-stage assay on bacterial culture filtrate: inhibition by phosphoramidon; assay type: biochemical
T1 construct: B. cereus culture filtrate, 5 μl/ml substrate; endogenous in cells; host or cells: Bacillus cereus X-3 DSM 3101 culture filtrate
T1 sequence (P05806 250-566): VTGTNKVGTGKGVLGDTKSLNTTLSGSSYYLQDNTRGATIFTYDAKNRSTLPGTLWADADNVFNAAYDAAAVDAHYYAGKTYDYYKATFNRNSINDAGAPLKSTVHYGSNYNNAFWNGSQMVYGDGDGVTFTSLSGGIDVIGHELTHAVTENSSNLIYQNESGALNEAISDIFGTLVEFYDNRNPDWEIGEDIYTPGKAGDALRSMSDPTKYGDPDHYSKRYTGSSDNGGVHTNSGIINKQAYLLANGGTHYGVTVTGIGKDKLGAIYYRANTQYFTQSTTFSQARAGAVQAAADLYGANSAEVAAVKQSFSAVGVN
Procedure: Bacillus cereus (X-3 DSM 3101, German Collection of Microorganisms, Braunschweig, FRG) containing the neural proteinase were obtained by overnight cultivation in a rich medium supplemented with calcium chloride.
as §1, with “PAGE.” for “PAGE. Both endopeptidase 24.11 from bovine kidney and thermolysin cleave the Ala-Leu bond of the compound at a very fast rate (Table 3). The Leu residue of the substrate interacts with the major hydrophobic specificity sites of the enzymes (S'1), whereas the two Ala residues interact with additional subsites (S1, S2), thereby contributing to catalysis and/or binding. Even the 4-nitroaniline leaving group probably interacts with the enzyme at subsite S'2.”
as §2

[3] = target: T2, Endopeptidase 24.11 from bovine kidney (Bos taurus, UniProt E1BPL8); assay: Two-stage assay with Suc-Ala-Ala-Leu-NH-Np plus S. griseus aminopeptidase: inhibition by phosphoramidon; assay type: biochemical
T2 construct: Endopeptidase 24.11 from bovine kidney was purified by Triton X-100 extraction; from tissue; host or cells: bovine kidney
T2 sequence (E1BPL8 1-750): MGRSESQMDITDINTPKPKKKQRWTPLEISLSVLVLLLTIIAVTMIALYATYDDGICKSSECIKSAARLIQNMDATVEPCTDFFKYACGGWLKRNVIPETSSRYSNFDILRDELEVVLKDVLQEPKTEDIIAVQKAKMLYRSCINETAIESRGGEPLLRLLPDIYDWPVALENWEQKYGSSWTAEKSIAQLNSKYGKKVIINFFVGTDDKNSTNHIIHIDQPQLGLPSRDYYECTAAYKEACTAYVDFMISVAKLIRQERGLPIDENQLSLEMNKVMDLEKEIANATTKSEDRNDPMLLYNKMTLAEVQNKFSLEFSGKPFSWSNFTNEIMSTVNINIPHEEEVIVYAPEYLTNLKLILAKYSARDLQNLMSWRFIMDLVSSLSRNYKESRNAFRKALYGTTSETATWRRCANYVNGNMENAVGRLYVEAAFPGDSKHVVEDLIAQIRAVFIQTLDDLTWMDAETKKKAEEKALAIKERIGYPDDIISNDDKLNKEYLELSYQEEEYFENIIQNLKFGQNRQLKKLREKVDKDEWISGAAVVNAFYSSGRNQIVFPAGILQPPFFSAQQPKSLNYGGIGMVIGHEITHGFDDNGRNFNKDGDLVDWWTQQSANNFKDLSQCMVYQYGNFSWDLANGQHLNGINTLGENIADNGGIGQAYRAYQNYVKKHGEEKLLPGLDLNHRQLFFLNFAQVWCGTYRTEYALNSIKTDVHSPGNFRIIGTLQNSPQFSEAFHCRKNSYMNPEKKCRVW
Procedure: (§3) Neutral endopeptidase and neutral proteinase activities were assayed by the two-stage assay using the synthetic substrate Suc-Ala-Ala-Leu-NH-Np supplemented with Streptomyces griseus aminopeptidase, usually 6-7 μg/ml. Assays were performed in 0.1M NaCl-0.05M Tris.HCl, pH 7.5 at 25° C., unless otherwise stated, with or without 0.01M CaCl2. Assay volume was 1 ml or 2.5 ml when using a Varian Techtron spectrophotometer or 0.2 ml at 23° C. when performed with microplates (Munc Immuno Plate II F) using a Kinetic Microplate Reader (Molecular Devices Corp.). Activity was measured by following the increase in absorbance at 405 nm, due to the release of 4-nitroaniline, E405 =10,600M^-1 cm^-1 [14 ]. Molar concentration of thermolysin was estimated using A280 1% =17.65 [15] and molecular mass of 34,600 Da; molar concentration of bovine kidney neutral endopeptidase by protein determination and molecular mass of 90 kDa, deduced from SDS PAGE. Both endopeptidase 24.11 from bovine kidney and thermolysin cleave the Ala-Leu bond of the compound at a very fast rate (Table 3). The Leu residue of the substrate interacts with the major hydrophobic specificity sites of the enzymes (S'1), whereas the two Ala residues interact with additional subsites (S1, S2), thereby contributing to catalysis and/or binding. Even the 4-nitroaniline leaving group probably interacts with the enzyme at subsite S'2. Previously reported assays of endopeptidase 24.11 usually utilized a hydrophobic Phe residue, but Leu seems preferable in reaching higher kcat values. The rapid hydrolysis of the Leu residue is also preferable for the present two-stage assay utilizing Steptomyces aminopeptidase, since this enzyme very rapidly hydrolyzes the product of the endopeptidase attack, Leu-NH-Np. The rapid hydrolysis coupled with Km values in the 1 mM range and overall kcat /Km values in the 10^6 M^-1 s^-1 range (Table 3), render the substrate most suitable for detailed kinetic investigations of the enzymes and for detection of the 24.11 and 24.4 classes of enzymes in mammalian tissues and in bacterial extracellular fluids, respectively.
(§4) Like other previously reported substrates for endopeptidase 24.11, the substrate employed may, in principle, be hydrolyzed by chymotrypsin-like enzymes. To assess the contribution of the neutral endopeptidases and neutral proteinases 1 the observed color development, the specific inhibitor of these classes of enzymes phosphoramidon was added (Table 4).
(§5) Inhibition was measured at pH 7.5, 25° C., in the presence of 10 mM CaCl2 except for the neutrophils that were assayed at 37° C. and in the absence of added Ca^2+. The substrate Suc-Ala-Ala-Leu-NH-Npat 0.4 mM was used. […]

Thermolysin = target: T3, Thermolysin (Bacillus thermoproteolyticus, UniProt P00800); assay: as above; assay type: biochemical
T3 sequence (P00800 233-548): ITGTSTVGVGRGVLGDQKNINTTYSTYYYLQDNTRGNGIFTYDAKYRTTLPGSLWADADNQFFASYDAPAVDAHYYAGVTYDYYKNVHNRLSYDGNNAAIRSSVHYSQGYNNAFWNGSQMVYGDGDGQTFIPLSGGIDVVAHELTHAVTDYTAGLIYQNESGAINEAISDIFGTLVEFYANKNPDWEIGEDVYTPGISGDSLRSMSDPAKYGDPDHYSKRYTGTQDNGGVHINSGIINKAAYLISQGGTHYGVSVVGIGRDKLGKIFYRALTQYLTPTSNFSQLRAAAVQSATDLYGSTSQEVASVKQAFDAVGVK
Procedure: as §3, §4, §5

Row | SMILES | rate of substrate hydrolysis (Human neutrophils [1]) | inhibition at 3.6 µM (Human neutrophils [2]; Homo sapiens, Neutrophil, phosphoramidon 3.6 μM, pH 7.5, 37° C., no added Ca2+, substrate 0.4 mM, 5×10^5 cells/ml) [%] | effect of inhibitor on enzymatic reaction (Human neutrophils [2]; intact neutrophils) | effect of inhibitor on enzymatic reaction (B. cereus culture; bacterial culture) | inhibition at 18 µM (B. cereus culture; phosphoramidon 18.0 μM, pH 7.5, 25° C., 10 mM CaCl2, substrate 0.4 mM, culture filtrate 5 μl/ml substrate) [%] | inhibition at 3.6 µM ([3]; phosphoramidon 3.6 μM, pH 7.5, 25° C., 10 mM CaCl2, substrate 0.4 mM, enzyme 2.2×10^-9 M) [%] | effect of inhibitor on activity ([3]; purified enzyme) | inhibition at 18 µM (Thermolysin; phosphoramidon 18.0 μM, pH 7.5, 25° C., 10 mM CaCl2, substrate 0.4 mM, enzyme 1.5×10^-9 M) [%] | effect of inhibitor on activity (Thermolysin; purified enzyme)
1 | CC(C)C[C@H](NC(=O)[C@H](C)NC(=O)[C@H](C)NC(=O)CCC(=O)O)C(=O)Nc1ccc([N+](=O)[O-])cc1 [Suc-Ala-Ala-Leu-NH-Np] (Suc-Ala-Ala-Leu-pNA) | ~ 1.3 nmoles/min/10^6 cells | – | – | – | – | – | – | – | –
2 | CC(C)C[C@H](NP(=O)(O)O[C@@H]1O[C@@H](C)[C@H](O)[C@@H](O)[C@H]1O)C(=O)N[C@@H](Cc1c[nH]c2ccccc12)C(=O)O [phosphoramidon] | – | > 95 | strongly inhibits | strongly inhibits | ~95 | > 99 | completely abolishes the activity | > 99 | completely abolishes the activity

From patent publication US5143839A, “Assay of endopeptidases and novel purified bacterial enzyme” (Ramot Ltd., priority 1989, dated 1992)
